According to patent publication US20050112573A1, “Method of detecting toxic substance” (priority 2001, published 2005):

Test system: yeast genes (level of expressed mRNA)
Assay: DNA chip analysis of expressed mRNA of yeast genes after 2 h culture with a toxic chemical substance
Format: cell-based, Saccharomyces cerevisiae S288C
Settings: for The level of expressed mRNA in the presence of chemical substance/ (ratio to absence of chemical substance): stress protein genes, DNA chip
Summary of the method: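 S. cerevisiae S288C grown at 25° C in YPD; toxicant added at log phase at growth-inhibitory, non-lethal levels for 2 h, untreated cells as control. Poly(A) mRNA reverse-transcribed with Cy3/Cy5-dUTP, hybridized to whole-genome chip at 65° C >12 h; value is fluorescence ratio versus untreated.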

`C=CC=O` [(14), acrolein] was tested, and the “The level of expressed mRNA in the presence of chemical substance/ in its absence, gene YDL078C” value (yeast gene YDL078C, ratio of DNA chip fluorescence intensity to that without chemical substance) was 0.8, the “The level of expressed mRNA in the presence of chemical substance/ (in its absence), gene YDL215C” value (yeast gene YDL215C, ratio of DNA chip fluorescence intensity to that without chemical substance) was 1.0 and the “The level of expressed mRNA in the presence of chemical substance/The level of expressed mRNA in the absence of chemical substance” value (yeast gene YDL238C) was 1.2. For the same molecule, the “The level of expressed mRNA in the presence of chemical substance/The level of expressed mRNA in the absence of chemical substance” value (yeast gene YDR055W) was 0.9, the “The level of expressed mRNA in the presence of chemical substance/ (in its absence), gene YDR073W” value (yeast gene YDR073W, ratio of DNA chip fluorescence intensity to that without chemical substance) was 1.2 and the “The level of expressed mRNA in the presence of chemical substance/ in its absence, gene YDR079W” value (yeast gene YDR079W, energy system protein genes, 2 h culture with the chemical, ratio to control without chemical) was 1.5. The “The level of expressed mRNA in the presence of chemical substance/ (ratio to absence), gene YDR079W” value (yeast gene YDR079W, mitochondria-located protein genes, 2 h culture with chemical) was 1.5, the “The level of expressed mRNA in the presence of chemical substance/The level of expressed mRNA in the absence of chemical substance” value (yeast gene YDR084C) was 1.0 and the “The level of expressed mRNA in the presence of chemical substance/The level of expressed mRNA in the absence of chemical substance” value (yeast gene YDR085C) was 1.6. The “The level of expressed mRNA in the presence of chemical substance/The level of expressed mRNA in the absence of chemical substance” value (yeast gene YDR104C) was 1.4, the “The level of expressed mRNA in the presence of chemical substance/The level of expressed mRNA in the absence of chemical substance” value (yeast gene YDR115W) was 1.5 and the “The level of expressed mRNA in the presence of chemical substance/The level of expressed mRNA in the absence of chemical substance” value (yeast gene YDR259C) was 1.5. For the same molecule, the “The level of expressed mRNA in the presence of chemical substance/ (in its absence), gene YDR297W” value (yeast gene YDR297W, ratio of DNA chip fluorescence intensity to that without chemical substance) was 0.9, the “The level of expressed mRNA in the presence of chemical substance/The level of expressed mRNA in the absence of chemical substance” value (yeast gene YDR315C) was 1.4 and the “The level of expressed mRNA in the presence of chemical substance/The level of expressed mRNA in the absence of chemical substance” value (yeast gene YDR358W) was 1.2. For the same molecule, the “The level of expressed mRNA in the presence of chemical substance/ (ratio to absence), gene YDR377W” value (yeast gene YDR377W, mitochondria-located protein genes, 2 h culture with chemical) was 1.4, the “The level of expressed mRNA in the presence of chemical substance/ (in its absence), gene YDR387C” value (yeast gene YDR387C, ratio of DNA chip fluorescence intensity to that without chemical substance) was 0.9 and the “The level of expressed mRNA in the presence of chemical substance/The level of expressed mRNA in the absence of chemical substance” value (yeast gene YDR388W) was 0.6. The “The level of expressed mRNA in the presence of chemical substance/The level of expressed mRNA in the absence of chemical substance” value (yeast gene YDR432W) was 0.5, the “The level of expressed mRNA in the presence of chemical substance/The level of expressed mRNA in the absence of chemical substance” value (yeast gene YDR481C) was 0.9 and the “The level of expressed mRNA in the presence of chemical substance/The level of expressed mRNA in the absence of chemical substance” value (yeast gene YDR510W) was 1.9. For the same molecule, the “The level of expressed mRNA in the presence of chemical substance/ (ratio to absence of chemical substance)” value (yeast gene YEL039C) was 1.4, the “The level of expressed mRNA in the presence of chemical substance/The level of expressed mRNA in the absence of chemical substance” value (yeast gene YEL042W) was 0.6 and the “The level of expressed mRNA in the presence of chemical substance/The level of expressed mRNA in the absence of chemical substance” value (yeast gene YEL066W) was 1.9. For the same molecule, the “The level of expressed mRNA in the presence of chemical substance/ (in its absence), gene YER015W” value (yeast gene YER015W, ratio of DNA chip fluorescence intensity to that without chemical substance) was 1.1, the “The level of expressed mRNA in the presence of chemical substance/The level of expressed mRNA in the absence of chemical substance” value (yeast gene YER039C) was 1.2 and the “The level of expressed mRNA in the presence of chemical substance/ (ratio to absence of chemical substance)” value (yeast gene YER057C) was 1.4. The “The level of expressed mRNA in the presence of chemical substance/The level of expressed mRNA in the absence of chemical substance” value (yeast gene YER107C) was 1.1, the “The level of expressed mRNA in the presence of chemical substance/The level of expressed mRNA in the absence of chemical substance” value (yeast gene YER130C) was 0.8 and the “The level of expressed mRNA in the presence of chemical substance/The level of expressed mRNA in the absence of chemical substance” value (yeast gene YFL028C) was 1.6. For the same molecule, the “The level of expressed mRNA in the presence of chemical substance/The level of expressed mRNA in the absence of chemical substance” value (yeast gene YFL043C) was 1.5, the “The level of expressed mRNA in the presence of chemical substance/ (in its absence), gene YGL035C” value (yeast gene YGL035C, ratio of DNA chip fluorescence intensity to that without chemical substance) was 1.1 and the “The level of expressed mRNA in the presence of chemical substance/ (in its absence), gene YGL115W” value (yeast gene YGL115W, ratio of DNA chip fluorescence intensity to that without chemical substance) was 1.2. For the same molecule, the “The level of expressed mRNA in the presence of chemical substance/ (ratio to absence of chemical substance)” value (yeast gene YGL115W) was 1.2, the “The level of expressed mRNA in the presence of chemical substance/The level of expressed mRNA in the absence of chemical substance” value (yeast gene YGL158W) was 2.3 and the “The level of expressed mRNA in the presence of chemical substance/ (ratio to absence), gene YGL187C” value (yeast gene YGL187C, mitochondria-located protein genes, 2 h culture with chemical) was 0.9. For the same molecule, the “The level of expressed mRNA in the presence of chemical substance/ (in its absence), gene YGL205W” value (yeast gene YGL205W, ratio of DNA chip fluorescence intensity to that without chemical substance) was 1.0, the “The level of expressed mRNA in the presence of chemical substance/The level of expressed mRNA in the absence of chemical substance” value (yeast gene YGL229C) was 1.0 and the “The level of expressed mRNA in the presence of chemical substance/ in its absence, gene YGR062C” value (yeast gene YGR062C, energy system protein genes, 2 h culture with the chemical, ratio to control without chemical) was 1.2. For the same molecule, the “The level of expressed mRNA in the presence of chemical substance/ (ratio to absence), gene YGR062C” value (yeast gene YGR062C, mitochondria-located protein genes, 2 h culture with chemical) was 1.2, the “The level of expressed mRNA in the presence of chemical substance/ (in its absence), gene YGR096W” value (yeast gene YGR096W, ratio of DNA chip fluorescence intensity to that without chemical substance) was 1.2 and the “The level of expressed mRNA in the presence of chemical substance/The level of expressed mRNA in the absence of chemical substance” value (yeast gene YGR136W) was 1.1. The “The level of expressed mRNA in the presence of chemical substance/The level of expressed mRNA in the absence of chemical substance” value (yeast gene YGR189C) was 0.9, the “The level of expressed mRNA in the presence of chemical substance/The level of expressed mRNA in the absence of chemical substance” value (yeast gene YGR213C) was 1.0 and the “The level of expressed mRNA in the presence of chemical substance/The level of expressed mRNA in the absence of chemical substance” value (yeast gene YGR257C) was 0.9. For the same molecule, the “The level of expressed mRNA in the presence of chemical substance/ (in its absence), gene YGR287C” value (yeast gene YGR287C, ratio of DNA chip fluorescence intensity to that without chemical substance) was 1.1, the “The level of expressed mRNA in the presence of chemical substance/ (in its absence), gene YGR288W” value (yeast gene YGR288W, ratio of DNA chip fluorescence intensity to that without chemical substance) was 1.1 and the “The level of expressed mRNA in the presence of chemical substance/ (ratio to absence of chemical substance)” value (yeast gene YHL028W) was 1.3. The “The level of expressed mRNA in the presence of chemical substance/ (ratio to absence of chemical substance)” value (yeast gene YHL046C) was 1.4, the “The level of expressed mRNA in the presence of chemical substance/The level of expressed mRNA in the absence of chemical substance” value (yeast gene YHR004C) was 0.8 and the “The level of expressed mRNA in the presence of chemical substance/The level of expressed mRNA in the absence of chemical substance” value (yeast gene YHR071W) was 1.6. The “The level of expressed mRNA in the presence of chemical substance/The level of expressed mRNA in the absence of chemical substance” value (yeast gene YHR139C) was 2.5, the “The level of expressed mRNA in the presence of chemical substance/The level of expressed mRNA in the absence of chemical substance” value (yeast gene YHR142W) was 1.2 and the “The level of expressed mRNA in the presence of chemical substance/ (in its absence), gene YHR210C” value (yeast gene YHR210C, ratio of DNA chip fluorescence intensity to that without chemical substance) was 1.0. The “The level of expressed mRNA in the presence of chemical substance/ (in its absence), gene YIL006W” value (yeast gene YIL006W, ratio of DNA chip fluorescence intensity to that without chemical substance) was 1.0, the “The level of expressed mRNA in the presence of chemical substance/ (ratio to absence of chemical substance)” value (yeast gene YIL011W) was 0.5 and the “The level of expressed mRNA in the presence of chemical substance/The level of expressed mRNA in the absence of chemical substance” value (yeast gene YIL123W) was 0.3.
